The text below walks through data of ChEMBL document CHEMBL1201862, “PubChem BioAssay data set” (2004).

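Cells were grown in 96-well plates and exposed to each compound for 48 hours at five concentrations; endpoints were interpolated linearly between bracketing concentrations, or set to the highest concentration if not reached. GI50 marks 50% less growth.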 Calls of active or inactive are those of the source. Rule as the data show it: active = GI50 up to about 1.1 µM and inactive = higher.

Test in all cases: DTP human tumour cell line panel, 48 h
The subject of test [1] is 786-0.
For test [2], the system named is A549.
Test [3] concerns BT-549.
The test system of test [4] is CAKI-1.
In test [5] the test system is CCRF-CEM.
Test [6] deals with HCC 2998.
The test system of test [7] is HOP-92.
Test [8] concerns Hs-578T.
For test [9], the system named is KM12.
Test [10] relates to MDA-MB-231.
For test [11], the system named is MDA-MB-435.
Test [12] relates to MDA-N.
The subject of test [13] is MOLT-4.
Test [14] has as its system Malme-3M.
The test system of test [15] is NCI-H226.
Test [16] relates to NCI/ADR-RES.
In test [17] the test system is RPMI-8226.
The test system of test [18] is SK-MEL-5.
The subject of test [19] is SNB-19.
In test [20] the test system is U-251.

Consider `CN(C)c1nc(N)c(C#N)c(C#N)c1C#N`, for which the GI50 was > 7.16 µM (inactive) in test [1]; > 10 µM (inactive) in test [2]; > 10 µM (inactive) in [3]; > 10 µM (inactive) in test [4]; 3.08 µM (inactive) in test [5]; > 10 µM (inactive) in test [6]. Moreover, the GI50 in [7], in [8], in test [9], in [10], in test [11] and in test [12] was > 10 µM (inactive) in each case. In addition, the GI50 in [13] was 3.28 µM (inactive); in test [14] it was > 10 µM (inactive); in test [15] it was > 10 µM (inactive); in test [16], > 10 µM (inactive); in test [17], > 8.79 µM (inactive); in test [18] it was > 10 µM (inactive). In addition, the GI50 in test [19] and in test [20] was > 10 µM (inactive) each time.
For `O=S(=O)(c1cccc(C(F)(F)F)c1)N1c2ccccc2-n2cccc2C1c1cccnc1` (stereo not given), the GI50 was > 40.6 µM (inactive) in test [1]; 17.3 µM (inactive) in test [2]; 9.29 µM (inactive) in test [3]; > 100 µM (inactive) in [4]; 8.75 µM (inactive) in test [5]; 24.7 µM (inactive) in test [6]. Besides, the GI50 is 26.9 µM (inactive) in test [7]; > 47 µM (inactive) in [8]; 19.2 µM (inactive) in [9]; > 36.8 µM (inactive) in test [10]; 6.3 µM (inactive) in [11]; 26.9 µM (inactive) in test [12]. Besides, the GI50 in test [13] is 4.18 µM (inactive); in test [14], 21.4 µM (inactive); in [15] it was > 28.1 µM (inactive); in test [16] it was 5.19 µM (inactive); in test [17] it was 6.17 µM (inactive); in [18] it was 8.09 µM (inactive). Also, the GI50 in test [19] was 32.6 µM (inactive); in test [20], 23.9 µM (inactive).
Take `CC(=O)OCC1OC(n2c(N)c(C#N)c(-c3ccccc3)c(C#N)c2=S)C(OC(C)=O)C(OC(C)=O)C1OC(C)=O` (stereo not given): the GI50 was 21.8 µM (inactive) in test [1]; > 100 µM (inactive) in [2]; 42.6 µM (inactive) in test [3]; 44.3 µM (inactive) in [4]; > 100 µM (inactive) in [5]; > 100 µM (inactive) in [6]. The GI50 was 11.8 µM (inactive) in test [7]; 14.6 µM (inactive) in test [8]; > 100 µM (inactive) in test [9]; 34 µM (inactive) in [10]; > 100 µM (inactive) in test [11]; > 100 µM (inactive) in test [12]. Moreover, the GI50 is > 100 µM (inactive) in test [13]; > 100 µM (inactive) in test [14]; > 61.4 µM (inactive) in test [15]; > 100 µM (inactive) in test [16]; > 100 µM (inactive) in [17]; > 100 µM (inactive) in test [18]. Besides, the GI50 in test [19] is 19 µM (inactive); in [20], 11.2 µM (inactive).
As for `S=C(N/N=C\c1ccccn1)N(Cc1ccccn1)Cc1ccccn1`, the GI50 is 0.697 µM (active) in test [1]; 2.3 µM (inactive) in test [2]; 1.93 µM (inactive) in [3]; 0.229 µM (active) in test [4]; < 0.019 µM (active) in [5]; 7.03 µM (inactive) in [6]. Further, the GI50 in test [7] is 1.32 µM (inactive); in test [8], 16 µM (inactive); in [9] it was 1.49 µM (inactive); in test [10], 0.419 µM (active); in test [11], 4.45 µM (inactive); in test [12] it was 7.55 µM (inactive). Further, the GI50 was 0.0582 µM (active) in test [13]; 1.37 µM (inactive) in test [14]; < 0.0419 µM (active) in test [15]; 1.19 µM (inactive) in [16]; 1.17 µM (inactive) in test [17]; 1.07 µM (active) in test [18]. Moreover, the GI50 in [19] is 3.47 µM (inactive); in test [20], 0.195 µM (active).
As for `O=[N+]([O-])c1ccc(-n2nc3ccc4c(no[n+]4[O-])c3[n+]2[O-])c([N+](=O)[O-])c1`, the GI50 is 2.68 µM (inactive) in test [1]; 16 µM (inactive) in [2]; 2.67 µM (inactive) in test [3]; 2.42 µM (inactive) in test [4]; 0.938 µM (active) in test [5]; 3.3 µM (inactive) in [6]. Further, the GI50 in test [7] was 2.96 µM (inactive); in test [8] it was 2.81 µM (inactive); in [9], 1.79 µM (inactive); in [10] it was 2.27 µM (inactive); in test [11], 2.71 µM (inactive); in test [12], 2.08 µM (inactive). For the same compound, the GI50 in [13] was 1.95 µM (inactive); in test [14], 2.45 µM (inactive); in test [15], 8.24 µM (inactive); in [16], 3.16 µM (inactive); in [17] it was 2.29 µM (inactive); in test [18] it was 2.79 µM (inactive). Moreover, the GI50 is 6.24 µM (inactive) in [19] and 2.77 µM (inactive) in [20].
Regarding `Cc1c(N)nc([C@H](CC(N)=O)NC[C@H](N)C(N)=O)nc1C(=O)N[C@H](C(=O)N[C@H](C)[C@@H](O)CC(=O)N[C@H](C(=O)NC(O[C@@H]1O[C@@H](C)[C@@H](N)[C@@H](O)[C@H]1O)C(O)c1nc(-c2nc(C(=O)NCCC[S+](C)C)cs2)cs1)[C@@H](C)O)[C@H](O[C@@H]1O[C@@H](CO)[C@@H](O)[C@H](O)[C@@H]1O[C@H]1O[C@H](CO)[C@@H](O)[C@H](OC(N)=O)[C@@H]1O)c1c[nH]cn1` (stereo not given in full), the GI50 in test [1] is 13.9 µM (inactive); in [2], 19.7 µM (inactive); in test [3] it was > 100 µM (inactive); in [4], 73.8 µM (inactive); in [5], > 100 µM (inactive); in test [6] it was 8.39 µM (inactive). Also, the GI50 in test [7] was 24.6 µM (inactive); in [8], 6.17 µM (inactive); in test [9] it was 97.1 µM (inactive); in test [10], > 100 µM (inactive); in [11], > 100 µM (inactive); in test [12], > 100 µM (inactive). Further, the GI50 in test [13] is 38.6 µM (inactive); in test [14], 37.2 µM (inactive); in test [15], 21 µM (inactive); in [16] it was 33.3 µM (inactive); in test [17] it was > 100 µM (inactive); in test [18] it was 28.8 µM (inactive). In addition, the GI50 was > 100 µM (inactive) in [19] and 92.5 µM (inactive) in test [20].
As for `COc1cc2c(cc1O)Cc1c-2[n+](C)cc2cc(OC)c(OC)cc12`, the GI50 in test [1] is 2.87 µM (inactive); in test [2] it was 38 µM (inactive); in test [3] it was 8.11 µM (inactive); in [4], 25.8 µM (inactive); in test [5] it was 0.407 µM (active); in test [6], > 100 µM (inactive). Further, the GI50 in test [7] was > 77.3 µM (inactive); in test [8], 60 µM (inactive); in test [9], > 59.6 µM (inactive); in test [10] it was > 100 µM (inactive); in [11] it was 36 µM (inactive); in [12], 34.9 µM (inactive). Moreover, the GI50 in test [13] is 0.653 µM (active); in test [14] it was > 86.5 µM (inactive); in test [15], > 59 µM (inactive); in [16] it was 6.79 µM (inactive); in [17], 9.14 µM (inactive); in test [18], 6.76 µM (inactive). Besides, the GI50 in test [19] was 1.64 µM (inactive); in [20], 2.01 µM (inactive).

Usually GI50 stands for the concentration giving 50% growth inhibition.
